Reference: ChEMBL document CHEMBL1201862, “PubChem BioAssay data set” (2004)
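Five concentrations, 48 hours, 96-well plates. Here, GI50 denotes the concentration required for 50% inhibition of growth.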 The source made the active and inactive calls. No stated cut-off is given here; in the data, active = GI50 up to about 1.1 µM and inactive = higher.

Experiments:
Assay in all cases: inhibition of tumour cell growth, NCI panel, 48 h
[1] = system: 786-0
[2] = system: CAKI-1
[3] = system: CCRF-CEM
[4] = system: HCC 2998
[5] = system: HOP-62
[6] = system: KM12
[7] = system: LOX IMVI
[8] = system: M14
[9] = system: NCI-H522
[10] = system: NCI/ADR-RES
[11] = system: OVCAR-3
[12] = system: OVCAR-4
[13] = system: OVCAR-5
[14] = system: OVCAR-8
[15] = system: SK-MEL-5
[16] = system: SK-OV-3
[17] = system: SR
[18] = system: UACC-62

Measured: GI50

Oc1cc(-c2ccccc2Cl)nc2cc3c(cc12)OCO3
active: [1] 320 nM | [2] 57.3 nM | [3] 42.2 nM | [4] 144 nM | [5] 132 nM | [6] 48.6 nM | [7] 54.1 nM | [8] 110 nM | [9] 65.3 nM | [10] 57.5 nM | [11] 60.8 nM | [13] 1090 nM | [14] 198 nM | [15] 43.5 nM | [16] 170 nM | [17] 56.2 nM | [18] 57.4 nM
inactive: [12] 2760 nM

O=C(CC1C=CCS1(=O)=O)NCc1ccccc1 (stereo not drawn)
inactive: [1] > 100000 nM | [2] > 100000 nM | [3] > 100000 nM | [4] > 100000 nM | [5] > 100000 nM | [6] > 100000 nM | [7] > 100000 nM | [8] > 100000 nM | [9] > 100000 nM | [10] > 100000 nM | [11] > 100000 nM | [12] > 100000 nM | [13] > 100000 nM | [14] > 100000 nM | [15] > 100000 nM | [16] > 100000 nM | [17] > 100000 nM | [18] > 100000 nM

CC(C)C(Br)CC/C(CBr)=C(\Cl)CCl (stereo not drawn)
inactive: [1] 1810 nM | [2] 4980 nM | [4] 13400 nM | [5] 16300 nM | [6] 5610 nM | [8] 1790 nM | [10] 3330 nM | [11] 3300 nM | [12] 2500 nM | [13] 10400 nM | [14] 3100 nM | [15] 1790 nM | [16] 2940 nM | [18] 2490 nM
active: [3] 135 nM | [7] 355 nM | [9] 689 nM | [17] 598 nM

NCC(O)CNC(=O)c1ccc(-c2ccc(-c3ccc(C(=O)NCC(O)CN)cc3)o2)cc1 (stereo not drawn)
inactive: [1] 23300 nM | [2] 81700 nM | [3] > 100000 nM | [4] 25100 nM | [5] 25300 nM | [6] 51200 nM | [7] 45000 nM | [8] > 100000 nM | [9] 33300 nM | [10] > 100000 nM | [11] 21400 nM | [12] 36500 nM | [13] > 100000 nM | [14] 29600 nM | [15] 33300 nM | [16] 23900 nM | [17] 67500 nM | [18] 41800 nM

CCCCCc1cc2cc3c(c(O)c2c(=O)[nH]1)C1(CCC3)C(=O)c2c(O)c3c(c(O)c2C1=O)C(=O)C(OC)=CC3=O (stereo not drawn)
inactive: [4] 2050 nM | [5] 3330 nM | [6] 1850 nM | [10] 4560 nM | [12] 1440 nM | [13] 2020 nM | [16] 2240 nM
active: [1] 746 nM | [2] 502 nM | [3] 586 nM | [7] 661 nM | [8] 908 nM | [9] 590 nM | [11] 499 nM | [14] 714 nM | [15] 515 nM | [17] 573 nM | [18] 916 nM

CC(=O)O[C@H]1C(=O)[C@@]2(C)[C@H]([C@H](OC(=O)c3ccccc3)[C@]3(O)C[C@H](OC(=O)[C@H](O)[C@@H](NC(=O)c4ccc(N(C)C)cc4)c4ccccc4)C(C)=C1C3(C)C)[C@]1(OC(C)=O)CO[C@@H]1C[C@@H]2O
active: [1] < 5 nM | [2] 339 nM | [3] < 5 nM | [4] < 5 nM | [5] 13.6 nM | [6] < 5 nM | [7] < 5 nM | [8] < 5 nM | [9] < 5 nM | [11] < 5 nM | [13] < 5 nM | [14] < 5 nM | [15] < 5 nM | [16] 26.2 nM | [17] < 5 nM | [18] < 5 nM
inactive: [10] 2210 nM | [12] 2920 nM
